Here are results for four molecules from ChEMBL document CHEMBL1125662, “Inhibition of human placental aromatase by novel homologated 19-oxiranyl and 19-thiiranyl steroids” (J Med Chem, 1991).

SMILES strings stand for the structures.

Broadly, the Ki is a measure of affinity in units of concentration, obtained from inhibition or displacement. Lower therefore signals a stronger hold on the target.

The assay has as its target T1, Aromatase (Homo sapiens, UniProt P11511).
T1 sequence (P11511 whole entry): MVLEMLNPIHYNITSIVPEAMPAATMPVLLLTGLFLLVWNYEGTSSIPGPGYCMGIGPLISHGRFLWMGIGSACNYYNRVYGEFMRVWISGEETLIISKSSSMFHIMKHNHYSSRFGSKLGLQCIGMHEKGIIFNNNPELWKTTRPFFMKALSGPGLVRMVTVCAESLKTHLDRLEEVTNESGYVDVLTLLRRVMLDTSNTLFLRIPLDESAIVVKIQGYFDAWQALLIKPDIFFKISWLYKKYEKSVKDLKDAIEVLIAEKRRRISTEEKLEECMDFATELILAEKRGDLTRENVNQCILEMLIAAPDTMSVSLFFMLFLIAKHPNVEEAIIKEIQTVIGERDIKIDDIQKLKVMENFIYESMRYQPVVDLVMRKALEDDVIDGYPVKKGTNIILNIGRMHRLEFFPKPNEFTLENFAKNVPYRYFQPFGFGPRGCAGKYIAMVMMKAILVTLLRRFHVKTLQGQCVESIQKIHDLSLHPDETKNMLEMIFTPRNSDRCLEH
Description: Inhibition of human placental Cytochrome P450 19A1
For `C[C@]12CC[C@H]3[C@@H](CCC4=CC(=O)CC[C@@]43C[C@H]3CO3)[C@@H]1CCC2=O`, the Ki stood at 86 nM. This lies in the double-digit nanomolar range. With `C[C@]12CC[C@H]3[C@@H](CCC4=CC(=O)CC[C@@]43C[C@@H]3CO3)[C@@H]1CCC2=O` the figure was 753 nM; with `C[C@]12CC[C@H]3[C@@H](CCC4=CC(=O)CC[C@@]43C[C@@H]3CS3)[C@@H]1CCC2=O`, 206 nM; with `C[C@]12CC[C@H]3[C@@H](CCC4=CC(=O)CC[C@@]43C[C@H]3CS3)[C@@H]1CCC2=O`, 22 nM.
